Data from patent US20090054517A1, “Phytoestrogens As Regulators Of Hedgehog Signaling And Methods Of Their Use In Cancer Treatment” (priority 2007, published 2009).
Read-outs that look alike come from different tables or passages of the source. Each block holds one compound with its values, some of them ahead of it.

Columns and labels:
[1] = tested on: Gli1; assay: Gli1 mRNA expression by RT-PCR / real-time RT-PCR in TRAMP-C2 cells; format: cell-based, mouse; settings: for suppression of Gli1 mRNA concentration compared with cyclopamine 30 μM: TRAMP-C2, time course 72 hrs, genistein 50 μM, EGCG 100 μM, FIG. 7A
Experimental: (§1) It has been shown that phytoestrogens in common herbs regulate prostate cancer cell growth in vitro (Shenouda et al., 2004). In order to determine whether these phytoestrogens also regulate cells derived from the mouse model of prostate cancer, the TRAMP-C2 cell line was treated with the soy phytoestrogen genistein and growth inhibition IC50 doses were determined (FIG. 4). Effects of the phytoestrogens genistein and EGCG on expression of these Hedgehog-pathway components were also determined by quantitative RT-PCR. Cyclopamine was used as a control. […] GAPDH was used as an internal control.
Another experiment was carried out to determine the dosage response of these phytoestrogen on Gli1 expression in the TRAMP-C2 cell line. Increasing amounts of genistein or EGCG were added to cell cultures of TRAMP-C2, and the levels of Gli1 mRNA was determined by real time RT-PCR. The results of this experiment verifies a correlation between phytoestrogen treatment and Hedgehog activity (FIG. 6).
In order to test whether the inhibitory effect of genistein on Gli1 transcription is through ERα or ERβ, experiments were conducted to determine whether 17β-estradiol (E2) works in the same manner as genistein (FIG. 7C).

[2] = tested on: Patched1; assay: Patched1 mRNA levels by RT-PCR; format: cell-based, mouse
Experimental: as §1
(§2) Approximate IC50 values for pathway repression were determined as 30 μM for genistein, 20 μM for EGCG, and 5 μM for resveratrol. These concentrations may be easily obtainable pharmacologically in humans. […] Thus, Genistein, EGCG, and resveratrol may regulate prostate cancer via inhibition of the Hedgehog signaling pathway.

[3] = tested on: Hedgehog signaling pathway; assay: Hedgehog pathway repression, approximate IC50 from RT-PCR; format: cell-based, mouse; settings: read-out: Approximate IC50 for pathway repression
Experimental: Another experiment was carried out to determine the dosage response of these phytoestrogen on Gli1 expression in the TRAMP-C2 cell line. […] The results of this experiment verifies a correlation between phytoestrogen treatment and Hedgehog activity (FIG. 6). […] These concentrations may be easily obtainable pharmacologically in humans.

[4] = tested on: Gli1 protein in LNCaP cells; assay: Gli1 protein concentration in LNCaP cells by Western blot; format: cell-based, human
Experimental: as §2

[5] = tested on: TRAMP-C2 cells; assay: Growth of TRAMP-C2 cell line (total cellular protein); format: cell-based, mouse
Experimental: as §1

[6] = tested on: Hedgehog pathway activity in Shh Light II cells; assay: Shh Light II Gli1-responsive luciferase reporter assay; format: cell-based; settings: Shh Light II cells with sonic hedgehog protein, 24 hours, FIG. 7B
Experimental: The effects of various phytoestrogens on Hedgehog signaling in a non-tumor cell line Shh Light II were also assessed (FIG. 7B). Shh Light II cells were obtained from the ATCC. These cells, containing the Gli1 responsive promoter driving a luciferase reporter, are a standard tool used to assay Hedgehog pathway activity. Meloni et al., 2006. Cells were allowed to reach confluency in 24-well plates and subsequently treated with the selected phytoestrogens at the amount indicated on the figure, along with the stimulatory sonic hedgehog protein (obtained from R&D Systems). The cells were then grown for 24 hours in phenol red-free DMEM supplemented with 0.5% charcoal stripped fetal bovine serum. Cells were then lysed, and the luciferase and renilla activities of the cell lysates were measured.

[7] = tested on: xenograft tumors; settings: mice; cited from earlier work
[8] = in vivo; cited from earlier work
[9] = tested on: prostate tumor in ERWT/TRAMP mice; assay: Prostate tumorigenesis in ERWT/TRAMP mice fed genistein diet; format: in vivo, mouse
Experimental: (§3) The influence of estrogen on prostate cancer has been previously described in the Background section. In order to determine the effect of genistein on prostate tumor development in the TRAMP model, in the first experiment, groups of ˜30 male mice, either ERαKO/TRAMP, ERβKO/TRAMP or ERWT/TRAMP were fed diets containing 0 or 300 mg genistein/kg (See Table 1). Mice were fed the diets from weaning and were euthanized at 5 months of age. Prostates were dissected and prepared for histopathology. The tumor stage was assessed using ratings of normal (N), hyperplasia (HYP), prostatic intraepithelial neoplasia (PIN), well differentiated carcinoma (WDC), moderately differentiated carcinoma (MDC) or poorly differentiated carcinoma (PDC) See Wechter et al., 2000; also see http://thegreenberglab.fhcrc.org. To summarize the data, non-cancer was defined as N, HYP or PIN and cancer was defined as WDC, MDC or PDC (Table 1) The prostate tumor incidence was compared between mice fed with genistein diet and those fed with casein.

[10] = tested on: prostate tumor in ERαKO/TRAMP mice; assay: Prostate tumorigenesis in ERαKO/TRAMP mice fed genistein diet; format: in vivo, mouse
Experimental: as §3

[11] = tested on: prostate tumor in ERβKO/TRAMP mice; assay: Prostate tumorigenesis in ERβKO/TRAMP mice fed genistein diet; format: in vivo, mouse
Experimental: as §3

[12] = tested on: poorly differentiated carcinoma in TRAMP mouse; settings: TRAMP mouse model; cited from earlier work
[13] = tested on: estrogen receptor alpha (ERα) and beta (ERβ); settings: cited from earlier work
[14] = ERWT/TRAMP, 300 mg genistein/kg diet, 5 months of age
[15] = ERαKO/TRAMP, 300 mg genistein/kg diet, 5 months of age
[16] = ERβKO/TRAMP, 300 mg genistein/kg diet, 5 months of age

SMILES: C[C@]12CC[C@@H]3c4ccc(O)cc4CC[C@H]3[C@@H]1CC[C@@H]2O [E2, 17β-estradiol, reference compound]
- inhibition of Gli1 expression ([1]; TRAMP-C2 cells, 10 nM, 24 hours, FIG. 7C): Strong inhibition

- IC50 ([3]; RT-PCR): ~20 µM
SMILES: O=C(O[C@@H]1Cc2c(O)cc(O)cc2O[C@@H]1c1cc(O)c(O)c(O)c1)c1cc(O)c(O)c(O)c1 [EGCG]
- suppression of Gli1 mRNA concentration compared with cyclopamine 30 μM [1]: more pronounced
- expression of Gli1, Gli2 and Gli3 ([1]; TRAMP-C2 cells): down-regulate
- reduction of Patched1 mRNA levels [2]: 70%
- Gli1 protein concentration [4]: significantly reduced
- proliferation of TRAMP-C2 cells [5]: inhibited

SMILES: COc1cc(/C=C/C(=O)CC(=O)/C=C/c2ccc(O)c(OC)c2)ccc1O [curcumin]
- hedgehog activity (luciferase reporter activity) [6]: inhibit

SMILES: CC1=C2C[C@H]3[C@@H](CC=C4C[C@@H](O)CC[C@@]43C)[C@@H]2CC[C@]12O[C@@H]1C[C@H](C)CN[C@H]1[C@H]2C [cyclopamine]
- effect on xenograft tumors [7]: complete regression
- birth defects in the progeny [8]: cause birth defects, most notably cyclopia

SMILES: O=c1c(-c2ccc(O)cc2)coc2cc(O)cc(O)c12 [genistein]
- suppression of Gli1 mRNA concentration compared with cyclopamine 30 μM [1]: more pronounced
- expression of Gli1, Gli2 and Gli3 ([1]; TRAMP-C2 cells): down-regulate
- Gli1 expression compared to the untreated control ([1]; TRAMP-C2 cells, RT-PCR, FIG. 5, GAPDH internal control): down-regulates
- effect of addition of genistein on inhibition of Gli1 expression by E2 ([1]; TRAMP-C2 cells, with 10 nM E2, FIG. 7C): did not enhance
- reduction of Patched1 mRNA levels [2]: 70%
- IC50 ([3]; Mus musculus): ~30 µM
- Gli1 protein concentration [4]: significantly reduced
- hedgehog activity (luciferase reporter activity) [6]: inhibit
- proliferation of TRAMP-C2 cells [5]: inhibited
- protective effect on prostate tumor incidence versus casein diet ([9]; ERWT/TRAMP mice, 300 mg genistein/kg diet from weaning to 5 months): significant protective effect
- HYP (2), incidence [9, 14]: 28%
- HYP (2), number of mice [9, 14]: 15
- MDC (5), incidence [9, 14]: 2%
- MDC (5), number of mice [9, 14]: 1
- Normal (Stage1), number of mice [9, 14]: 0
- PDC (6), incidence [9, 14]: 24%
- PDC (6), number of mice [9, 14]: 13
- PIN (3), incidence [9, 14]: 33%
- PIN (3), number of mice [9, 14]: 18
- WDC (4), incidence [9, 14]: 13%
- WDC (4), number of mice [9, 14]: 7
- protective effect on prostate tumor incidence versus casein diet ([10]; ERαKO/TRAMP mice, 300 mg genistein/kg diet from weaning to 5 months): not
- HYP (2), number of mice [10, 15]: 0
- MDC (5), incidence [10, 15]: 3.8%
- MDC (5), number of mice [10, 15]: 1
- Normal (Stage1), incidence [10, 15]: 3.8%
- Normal (Stage1), number of mice [10, 15]: 1
- PDC (6), number of mice [10, 15]: 0
- PIN (3), incidence [10, 15]: 3.8%
- PIN (3), number of mice [10, 15]: 1
- WDC (4), incidence [10, 15]: 88.6%
- WDC (4), number of mice [10, 15]: 23
- protective effect on prostate tumor incidence versus casein diet ([11]; ERβKO/TRAMP mice, 300 mg genistein/kg diet from weaning to 5 months): not
- HYP (2), number of mice [11, 16]: 0
- MDC (5), number of mice [11, 16]: 0
- Normal (Stage1), number of mice [11, 16]: 0
- PDC (6), incidence [11, 16]: 48%
- PDC (6), number of mice [11, 16]: 10
- PIN (3), incidence [11, 16]: 19%
- PIN (3), number of mice [11, 16]: 4
- WDC (4), incidence [11, 16]: 33%
- WDC (4), number of mice [11, 16]: 7
- effect on poorly differentiated carcinoma [12]: protective effect
- binding to ERα and ERβ [13]: bind both receptors with a higher affinity for ERβ

- IC50 ([3]; Mus musculus, RT-PCR): ~5 µM
SMILES: Oc1ccc(C=Cc2cc(O)cc(O)c2)cc1 [resveratrol]
- reduction of Gli1 mRNA ([1]; RT-PCR): 60%
- reduction of Patched1 mRNA levels [2]: 50%
- Gli1 protein concentration [4]: significantly reduced
